We go through three compounds from patent US20080070237A1, “Npas3 Mutant Mice and Uses for Screening and Testing Therapies for Schizophrenia and Related Neurological Disorders” (priority 2003, published 2008).

Counter-ions that a name gives are not always drawn. Like-named read-outs stand apart in the source and are kept apart here.

The subject of assay [1] is Npas3+/+ control mice. It counts as in vivo, mouse. As for the experimental part:
(§1) Locomotor Activity Tests. For all locomotor experiments, activity is measured in a 41×41×30 cm Omnitech Digiscan activity monitor equipped with 16 pairs of photodetector-LED beams along the x and y axis. (Accuscan Electronics, Columbus, Ohio). […] After the acclimation period, Baseline Locomoter Activity Test results are recorded for each test mouse. Subsequently, locomotor activity is tested following pharmacological challenges of three neurotransmitter pathways involved in schizophrenia and other neurological disorders. The pathways and the drugs used to challenge each include:
(§2) a. Methamphetamine (a dopamine pathway agonist) 1.0 mg/kg in the form of D-methamphetamine-HCL (Sigma; St. Louis, Mo.). Methamphetamine is a strong dopamine agonist that will activate D1 and D2 receptor signaling.
(§3) b. Haloperidol (a dopamine pathway antagonist) 0.3 mg/kg or 1.0 mg/kg (Tocris; Ellisville, Mo.).
(§4) The test drug is 0.3 mg/kg clozapine (Sigma; St. Louis, Mo.). An atypical neuroleptic agent, clozapine, which has a high affinity for serotonin 5-HT2 and 5-HT6 receptors, is administered to determine the involvement of serotonergic pathways. Although clozapine can also antagonize both D1 and D2-like receptors, ten times higher concentrations are necessary to inhibit dopamine-dependent hyperactivity
(§5) The test drugs are 1.0 mg/kg MK-801 or 0.3 mg/kg MK-801 (ICN Biomedicals Inc.; Aurora, Ohio). MK-801 is a noncompetitive NMDA receptor antagonist.
(§6) Each drug is administered in a subcutaneous injection volume of 5 mL/kg body weight. Post-challenge activity is measured for three hours. Horizontal activity counts (scored by visual observance or breaking a light beam) and total distance are recorded during the pre- and post-challenge periods at 3-minute intervals with VersaMax software. All Locomoter Activity Tests are performed on mice at 7-9 weeks of age, with n=12. All values are expressed as mean±SEM. Statistical analyses are performed using appropriate analysis of variance (ANOVA) followed by adapted post hoc comparisons.

In assay [2] the test system is Npas3−/− mice. It counts as in vivo, mouse. Here is the method:
as §1, §2, §3, §4, §5, §6

[3] abbreviates: FIG. 28 dose of MK-801 (not stated at the place; b105: 1.0 or 0.3 mg/kg), subcutaneous.
Where [4] appears, read: FIG. 28 dose of MK-801, subcutaneous.
Where [5] appears, read: lower dose 0.1 mg/kg, data not shown.
[6] abbreviates: 0.3 mg/kg subcutaneous, post-challenge activity measured for three hours.
[7] abbreviates: 1.0 mg/kg subcutaneous, post-challenge activity measured for three hours.

In the case of `C[C@]12N[C@H](Cc3ccccc31)c1ccccc12` [MK-801], the “horizontal locomotor activity after drug challenge” value (from here on “horizontal locomotor activity”) was “increased locomotor activity” in assay [1] (setting [3]) and “dramatic suppression of locomotor activity” in assay [2] (setting [3]). Also, the “stereotype (stereotypy) after drug challenge” value in assay [1] (setting [4]) is reported as “did not increase the levels of stereotype”; in assay [2] (setting [4]), “induced hyperstereotype”. Further, the “locomotor activity after drug challenge” value in assay [1] (setting [5]) is “did not induce hyperactivity”; in assay [2] (setting [5]), “potently activated locomotion”.

For the compound `O=C(CCCN1CCC(O)(c2ccc(Cl)cc2)CC1)c1ccc(F)cc1` [haloperidol, Haloperidol], the “horizontal locomotor activity” value in assay [1] (setting [6]) is listed as “substantial impairment in locomotor activity”; in assay [2] (setting [6]), “partial reduction in activity”.

On to `CN[C@@H](C)Cc1ccccc1` [methamphetamine, D-methamphetamine-HCL], for which the results for the “horizontal locomotor activity” value in assay [1] (setting [7]) and in assay [2] (setting [7]) were “increases locomotor behavior” and “failure of methamphetamine to increase locomotor activity”, respectively.
